pEC50, pIC50: −log10 of the molar value.
Key:
[1] = system: human PBMCs stimulated with anti-CD3/CD28 Dynabeads; assay: Human PBMC cytokine release assay (IL-2 by ELISA); assay type: cell-based; settings: Dynabeads CD3/CD28 48 hours, IL-2 ELISA, fold change over baseline, read-out: EC50 (human PBMC cytokine release, group)
Experimental: Peripheral blood mononuclear cells (PBMC) were isolated from healthy human donor using Histopaque (Sigma). The Cbl-inhibitor was added to 1×10^5 cells per well and the plate was incubated for 30 minutes at 37° C. in 5% CO2 at different concentrations with a final DMSO concentration of <0.5%. Following incubation with the Cbl-b inhibitor, human PBMCs were stimulated with Dynabeads™ Human T-Activator CD3/CD28 (Thermo Fisher Scientific) for 48 hours. Cell free supernatant were collected after end of incubation and were analyzed for cytokine secretion, including IL-2 by ELISA (R&D Systems). Readouts were reported as fold change over baseline. Here, baseline was the measurement obtained from human PBMCs stimulated with Dynabeads™ Human T-Activator CD3/CD28, where the cells were not incubated with a Cbl-b inhibitor.

[2] = molecular target: T1, human recombinant CBL-b (human Biotin CBL-b recombinant protein a.a. 39-426) (Homo sapiens, UniProt Q13191); assay: Biochemical assay for CBL-b inhibition (ligand displacement TR-FRET); assay type: binding; settings: 50 nM CBL-b, 0.3 μM Bodipy FL-Probe, read-out: IC50 (CBL-b inhibition, group)
T1 construct: human Biotin CBL-b recombinant protein a.a; 39-426; Biotin (biotinylated); made in house
Method in brief: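 Biotinylated CBL-b (a.a. 39-426, 50 nM final) pre-incubated with compound 60 min at RT in HEPES/NaCl/Triton/BSA/TCEP buffer, then Bodipy FL probe (0.3 μM final) 60 min, then terbium-streptavidin 60 min. TR-FRET read at 665/615 nm; IC50 and % max inhibition from sigmoidal fits.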

[3] = system: NFAT signaling pathway in Jurkat NFAT reporter cells; assay: Jurkat NFAT reporter assay; assay type: cell-based; settings: Homo sapiens, 30 min with compound, then soluble anti-human CD3/CD28 antibody for 6 hours, luciferase readout, read-out: EC50 (Group)
Method in brief: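 Jurkat cells bearing an NFAT-RE-driven luciferase reporter (1×10^5 per well) preincubated with Cbl-b inhibitor for 30 min, then stimulated 6 h with soluble anti-CD3/CD28. Luminescence read with Bio-Glo; values are fold change over anti-CD3/CD28-stimulated cells without inhibitor.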

T1 sequence (Q13191 39-426): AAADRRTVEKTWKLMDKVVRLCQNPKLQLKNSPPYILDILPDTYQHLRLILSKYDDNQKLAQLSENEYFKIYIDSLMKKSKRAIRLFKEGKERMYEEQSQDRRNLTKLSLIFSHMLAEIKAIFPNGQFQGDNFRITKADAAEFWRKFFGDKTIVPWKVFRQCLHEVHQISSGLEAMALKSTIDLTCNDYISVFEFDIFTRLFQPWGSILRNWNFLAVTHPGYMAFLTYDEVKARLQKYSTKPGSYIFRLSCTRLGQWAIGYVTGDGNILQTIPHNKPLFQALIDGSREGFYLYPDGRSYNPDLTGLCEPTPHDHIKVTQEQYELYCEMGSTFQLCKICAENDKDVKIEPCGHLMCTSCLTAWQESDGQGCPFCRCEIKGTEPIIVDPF

Row | SMILES | pEC50 [1] | pIC50 [2] | pEC50 [3]
1 | Cc1cc(C(C)N2CCC[C@H](C)C2)cc(N2Cc3ccc(C4(Cc5nncn5C)COC4)cc3C2=O)c1 (stereo partly drawn) [Compound 12, 6-(3-((4-Methyl-4H-1,2,4-triazol-3-yl)methyl)oxetan-3-yl)-2-(3-methyl-5-(1-((S)-3-methylpiperidin-1-yl)ethyl)phenyl)isoindolin-1-one] | > 5.30 | > 7.10 | 6.00 to 6.52
2 | Cn1cnnc1CC1(c2ccc3c(c2)C(=O)N(c2cc(CNCCC(F)(F)F)cc(C(F)(F)F)n2)C3)COC1 [Compound 25, 6-(3-((4-Methyl-4H-1,2,4-triazol-3-yl)methyl)oxetan-3-yl)-2-(6-(trifluoro-methyl)-4-(((3,3,3-trifluoropropyl)amino)methyl)pyridin-2-yl)isoindolin-1-one] | > 5.30 | > 7.10 | 6.00 to 6.52
3 | Cn1cnnc1CC1(c2ccc3c(c2)C(=O)N(c2cc(CN4CC5CCCC5C4)cc(C(F)(F)F)n2)C3)COC1 (stereo not drawn) [Compound 35, 2-(4-((Hexahydrocyclopenta[c]pyrrol-2(1H)-yl)methyl)-6-(trifluoromethyl)pyri-din-2-yl)-6-(3-((4-methyl-4H-1,2,4-triazol-3-yl)methyl)oxetan-3-yl)isoindolin-1-one] | > 5.30 | 6.52 to 7.10 | 6.00 to 6.52
4 | C[C@@H]1C[C@H](C)CN(Cc2cc(N3Cc4ccc(C5(Cc6nncn6C)COC5)cc4C3=O)nc(C(F)(F)F)c2)C1 [Compound 39, 2-(4-(((3S,5R)-3,5-Dimethylpiperidin-1-yl)methyl)-6-(trifluoromethyl)pyridin-2-yl)-6-(3-((4-methyl-4H-1,2,4-triazol-3-yl)methyl)oxetan-3-yl)isoindolin-1-one] | > 5.30 | > 7.10 | > 6.52
5 | C[C@H]1CCCN(Cc2cc(Cl)nc(N3Cc4ccc(C5(Cc6nncn6C)COC5)cc4C3=O)c2)C1 [Compound 40, (S)-2-(6-Chloro-4-((3-methylpiperidin-1-yl)methyl)pyridin-2-yl)-6-(3-((4-methyl-4H-1,2,4-triazol-3-yl)methyl)oxetan-3-yl)isoindolin-1-one] | > 5.30 | > 7.10 | > 6.52
6 | C[C@@H]1C[C@H](C)CN(Cc2cc(Cl)nc(N3Cc4ccc(C5(Cc6nncn6C)COC5)cc4C3=O)c2)C1 [Compound 52, 2-(6-Chloro-4-(((3S,5R)-3,5-dimethylpiperidin-1-yl)methyl)pyridin-2-yl)-6-(3-((4-methyl-4H-1,2,4-triazol-3-yl)methyl)oxetan-3-yl)isoindolin-1-one] | > 5.30 | > 7.10 | > 6.52
7 | Cc1nc(CN2CCC[C@H](C)C2)cc(N2Cc3ccc(C4(Cc5nncn5C)COC4)cc3C2=O)n1 [Compound 53, (S)-6-(3-((4-Methyl-4H-1,2,4-triazol-3-yl)methyl)oxetan-3-yl)-2-(2-methyl-6-((3-methylpiperidin-1-yl)methyl)pyrimidin-4-yl)isoindolin-1-one] | > 5.30 | > 7.10 | 6.00 to 6.52
8 | Cc1cc(CN2C[C@H](C)C[C@H](C)C2)cc(N2Cc3ccc(C4(Cc5nncn5C)COC4)cc3C2=O)c1 [Compound 56, 2-(3-(((3S,5R)-3,5-Dimethylpiperidin-1-yl)methyl)-5-methylphenyl)-6-(3-((4-methyl-4H-1,2,4-triazol-3-yl)methyl)oxetan-3-yl)isoindolin-1-one] | > 5.30 | 6.52 to 7.10 | > 6.52
9 | Cn1cnnc1CC1(c2ccc3c(c2)C(=O)N(c2cc(CNCC4CC4)cc(Cl)n2)C3)COC1 [Compound 57, 2-(6-Chloro-4-(((cyclopropylmethyl)amino)methyl)pyridin-2-yl)-6-(3-((4-methyl-4H-1,2,4-triazol-3-yl)methyl)oxetan-3-yl)isoindolin-1-one] | > 5.30 | > 7.10 | > 6.52
10 | Cc1cc(CN2C[C@@H](C)C[C@H](C)C2)cc(N2Cc3ccc(C4(Cc5nncn5C)COC4)cc3C2=O)c1 [Compound 59, 2-(3-(((3S,5S)-3,5-Dimethylpiperidin-1-yl)methyl)-5-methylphenyl)-6-(3-((4-methyl-4H-1,2,4-triazol-3-yl)methyl)oxetan-3-yl)isoindolin-1-one] | > 5.30 | 6.52 to 7.10 | 6.00 to 6.52
11 | Cc1cc(CN2C[C@H](C)C[C@H](C)C2)cc(N2Cc3ccc(C4(Cc5nncn5C)COC4)cc3C2=O)n1 [Compound 78, 2-(4-(((3S,5R)-3,5-Dimethylpiperidin-1-yl)methyl)-6-methylpyridin-2-yl)-6-(3-((4-methyl-4H-1,2,4-triazol-3-yl)methyl)oxetan-3-yl)isoindolin-1-one] | > 5.30 | > 7.10 | > 6.52
12 | Cn1cnnc1CC1(c2ccc3c(c2)C(=O)N(c2cc(CNCC4CC4)cc(C(F)(F)F)n2)C3)COC1 [Compound 80, 2-(4-(((Cyclopropylmethyl)amino)methyl)-6-(trifluoromethyl)pyridin-2-yl)-6-(3-((4-methyl-4H-1,2,4-triazol-3-yl)methyl)oxetan-3-yl)isoindolin-1-one] | > 5.30 | > 7.10 | > 6.52

— patent US20260226073A1 (AURIGENE ONCOLOGY LIMITED, priority 2023, published 2026)
